Here are results for three molecules from US9814714B2, “Kinase modulation, and indications therefor” (Plexxikon Inc., priority 2015, dated 2017).

The subject of experiment [1] is phospho-ERK1/2 (T202/Y204, pERK) in RAS mutant and BRAF^V600E cell lines. As to the kind of experiment: pERK screen in cell line panel: ERK pathway inhibition index (EPII). Type of experiment: cell-based. The note with it: for pERK activation in RAS mutant cell lines (in words): at the concentrations tested; for ERK pathway inhibition index (EPII): ratio between mean pERK activation EC50 (B9, IPC-298, HCT116) and mean pERK inhibition IC50 (A375, COLO829). As to the method:
Phospho-ERK AlphaScreen® assay: The degree of ERK phosphorylation was determined using an AlphaScreen® assay where an increase in ERK1/2 phosphorylation at Thr202/Tyr204 brought the donor and acceptor AlphaScreen® beads into close proximity, generating a signal for quantification. To determine the effects of compound treatment on phosphorylation of ERK1/2, cells were plated in a 96-well plate and treated with an 8-point titration of compound for one hour at 37° C. before lysis. To detect pERK, cell lysates were incubated with streptavidin-coated AlphaScreen® donor beads, anti-mouse IgG AlphaScreen® acceptor beads, a biotinylated anti-ERK1/2 rabbit antibody, and a mouse antibody that recognizes ERK1/2 only when it is phosphorylated on Thr202 and Tyr204. The biotinylated ERK1/2 antibody binds to both the streptavidin-coated AlphaScreen® donor beads and to ERK1/2 (regardless of its phosphorylation state), and the phospho-ERK1/2 antibody binds to the acceptor beads and to ERK1/2 that is phosphorylated at Thr202/Tyr204. An increase in ERK1/2 phosphorylation at Thr202/Tyr204 brings the donor and acceptor AlphaScreen® beads into close proximity, generating a signal that can be quantified on an EnVision reader (Perkin Elmer).

For experiment [2], the system named is cell model that expresses the same HRAS mutation prevalent in squamous cell tumors. The experiment is described as follows: HRAS mutant cell model: growth and MAPK pathway response gene expression. Type of experiment: cell-based. From the text: In a cell model that expresses the same HRAS mutation prevalent in squamous cell tumors from patients treated with RAF inhibitors, first-generation RAF inhibitors stimulate the in vitro and in vivo growth of the cells and induce the expression of MAPK pathway response genes including EGFR ligands. […] Based on these advantageous properties of the compound of either Formula I or Formula II, enhanced tolerability and, in turn, increased drug dosage may be obtained.

Experiment [3] deals with pMEK in IPC-298 cells (NRAS-Q61L). The experiment is described as follows: Phospho-MEK AlphaScreen assay, pMEK activation in IPC-298. The note with it: Homo sapiens. The class given is cell-based. As to the method:
(§1) Using AlphaScreen® technology, the ability of Formula I to affect the phosphorylation of ERK and MEK in the cells was measured quantitatively. Following treatment with compound, the cells were lysed, and a sample of the lysate was transferred to an assay plate. The lysate was mixed with antibodies directed against total ERK/MEK, antibodies that recognize specific phosphorylation sites on ERK/MEK, AlphaScreen® anti-mouse IgG Acceptor beads, and Streptavidin Donor beads. Upon excitation of the donor beads with laser light at 680 nm, singlet oxygen was produced. This singlet oxygen was rapidly quenched, unless the AlphaScreen® Acceptor beads were in close proximity, in which case a proximity signal can be measured at 580 nm. In the presence of phosphorylated ERK/MEK, there is a very strong proximity signal. BRAF-V600 inhibitors affect a decrease in this proximity signal in cells expressing BRAF-V600E (e.g. A375) through a decrease in phosphorylation of the BRAF effectors ERK and MEK.
(§2) 1. One day before the assay, 50,000 cells were plated in each well of a 96-well tissue-culture-treated plate (Corning #3610) in a 50 μL volume. Cells were incubated at 37° C. overnight.
(§3) 2. Compounds were diluted in DMSO to 500× final concentration. Each compound was plated as an 8-point titration, using 1:3 dilutions in DMSO. The maximum concentration was about 5 mM.
3. […]
On the technique in general: Bead proximity is the source of the signal in Alpha formats.

The subject of experiment [4] is pMEK in B9 cells (HRAS-Q61L). As to the kind of experiment: Phospho-MEK AlphaScreen assay, pMEK activation in B9. Type of experiment: cell-based, murine. The note with it: Mus musculus. The protocol: as §1, §2, §3
3. […]

Another experiment deals with T1, CRAF (Homo sapiens, UniProt P04049, Y340D/Y341D).
T1 construct: GST (N); purchased Millipore 14-352; host or cells: insect cells
T1 sequence (P04049 307-648 Y340D/Y341D): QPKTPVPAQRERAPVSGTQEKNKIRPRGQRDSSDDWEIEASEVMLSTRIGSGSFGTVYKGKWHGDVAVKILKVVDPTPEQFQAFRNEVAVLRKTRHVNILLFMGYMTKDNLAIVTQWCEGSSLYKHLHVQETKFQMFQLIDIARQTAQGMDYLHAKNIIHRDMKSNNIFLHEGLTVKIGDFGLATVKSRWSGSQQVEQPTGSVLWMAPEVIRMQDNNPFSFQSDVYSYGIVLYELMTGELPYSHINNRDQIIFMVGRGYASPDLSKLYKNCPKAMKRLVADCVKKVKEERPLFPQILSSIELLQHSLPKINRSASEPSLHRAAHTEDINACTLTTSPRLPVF
As to the kind of experiment: In vitro RAF kinase biochemical assay, activated CRAF. The protocol:
(§4) 1) Test compounds in DMSO were serially diluted and plated into 384-well assay plates at 1 μL/well.
(§5) 2) Added were 15 μL/well of RAF enzyme and biotinylated-MEK1 substrate in kinase buffer.
(§6) 3) Added were 4 μL of ATP (500 μM) in kinase buffer.
(§7) 5) After a brief spin down, the plate was incubated at about room temperature for 40-50 minutes. 6) Added was 5 μL of Stop buffer at final EDTA 20 mM; anti-phospho-MEK1 1:2,500; donor/acceptor beads 3 μg/mL. 7) After brief spin down, the plate was incubated at room temperature for about 3 hours. 8) The plate was read on the Envision multilabel plate reader (Perkin Elmer). […] 2. Results

In the next experiment the target is BRAF (Homo sapiens, UniProt P15056). As to the kind of experiment: In vitro RAF kinase biochemical assay, wild-type BRAF. As to the method:
(§8) The in vitro RAF kinase activities were determined by measuring phosphorylation of a biotinylated substrate peptide as described in Tsai et al 2008. Formula II was tested against a panel of 287 kinases at concentrations of 1 μM in duplicate. […] The 287 kinases represent all major branches of the kinome phylogenetic tree. The inhibition screen of 287 kinases was carried out under contract as complementary panels at Invitrogen (Life Technologies, WI, USA) SelectScreen™ profiling service, DiscoverX (CA, USA) KINOMEScan™ service, and Reaction Biology Corporation (PA, USA) Kinase HotSpot^SM service.
BRAF, residues L416 through H766 fused at the N-terminus with a GST tag, was produced in insect cells, and BRAF was purchased from Millipore (Catalog #14-530).
as §4, §5, §6, §7

The subject of experiment [5] is pMEK in HCT116 cells (KRAS-G13D). As to the kind of experiment: Phospho-MEK AlphaScreen assay, pMEK activation in HCT116. Type of experiment: cell-based. The note with it: Homo sapiens, HCT-116. As to the method:
as §1, §2, §3
3. […]

The target in the next experiment is BRAF^V600E (Homo sapiens, UniProt P15056, V600E). The experiment is described as follows: In vitro RAF kinase biochemical assay, BRAF V600E. The protocol: as §8
Chain of BRAF^V600E (P15056 448-723 V600E): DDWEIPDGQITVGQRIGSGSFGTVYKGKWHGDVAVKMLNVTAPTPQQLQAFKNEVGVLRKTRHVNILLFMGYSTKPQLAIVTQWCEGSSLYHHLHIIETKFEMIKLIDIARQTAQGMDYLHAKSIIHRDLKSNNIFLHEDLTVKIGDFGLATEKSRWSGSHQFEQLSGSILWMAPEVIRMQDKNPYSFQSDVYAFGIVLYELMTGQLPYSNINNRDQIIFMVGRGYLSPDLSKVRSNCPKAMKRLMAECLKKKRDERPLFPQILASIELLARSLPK
BRAF proteins were produced in insect cells at Plexxikon Inc. as N-terminally His-tagged fragments encompassing the kinase domain.
as §4, §5, §6, §7

The mark [6] stands for this setting: Table 1, average of more than 4 experiments.
Where [7] appears, read: Table 1, average of more than 4 experiments, read-out: Biochemical IC50 BRAF^V600E.

Where two headings read alike, the source gives them in different places. Where only a bound is given, the exact number is not on record here.

Chain of BRAF (P15056 416-766): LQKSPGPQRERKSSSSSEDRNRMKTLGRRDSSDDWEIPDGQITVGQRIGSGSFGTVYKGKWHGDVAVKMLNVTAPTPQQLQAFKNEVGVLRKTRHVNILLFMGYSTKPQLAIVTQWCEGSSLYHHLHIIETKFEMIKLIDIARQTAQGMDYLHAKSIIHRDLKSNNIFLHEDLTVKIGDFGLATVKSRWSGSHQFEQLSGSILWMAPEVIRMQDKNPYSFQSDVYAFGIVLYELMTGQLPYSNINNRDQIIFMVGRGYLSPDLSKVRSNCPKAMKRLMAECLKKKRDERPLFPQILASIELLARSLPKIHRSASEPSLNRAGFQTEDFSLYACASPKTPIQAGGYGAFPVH

In general, EC50 refers to the midpoint of the concentration-response curve. A higher EC50 goes with a less potent agent. In general, IC50 refers to the concentration that gives 50% inhibition. With `O=C(c1c(F)ccc(NS(=O)(=O)N2CC[C@@H](F)C2)c1F)c1c[nH]c2ncc(-c3cnc(C4CC4)nc3)cc12` [Formula I, (3R)—N-[3-[5-(2-cyclopropylpyrimidin-5-yl)-1H-pyrrolo[2,3-b]pyridine-3-carbonyl]-2,4-difluorophenyl]-3-fluoropyrrolidine-1-sulfonamide], in experiment [1], the “pERK activation in RAS mutant cell lines (in words)” value was “essentially no pERK activation”. Further, the “ERK pathway inhibition index (EPII)” value in experiment [1] is >10,000. For the same molecule, the “Stimulation of in vitro and in vivo growth and induction of MAPK pathway response genes including EGFR ligands (in words)” value in experiment [2] is “no such effect”. The 50% effective concentration (EC50) in experiment [3], in experiment [4] and in experiment [5] was 10000 nM each time. The IC50 against CRAF (setting [6]) was 91 nM; against CRAF (Table 3, ATP 100 μM), 22.6 nM; on BRAF (setting [6]), 140 nM; on BRAF (Table 3, ATP 100 μM) it was 14.3 nM; at BRAF^V600E (setting [7]), 4.2 nM; at BRAF^V600E (Table 3, ATP 100 μM, read-out: Biochemical IC50 BRAF_V600E), 4.4 nM. Also, on BRAF^V600E, the “IC50 against mutated BRAF kinases including BRAFV600E (in words)” value is recorded as “single digit”.
Take `CCN(C)S(=O)(=O)Nc1ccc(F)c(C(=O)c2c[nH]c3ncc(-c4cnc(C5CC5)nc4)cc23)c1F` [Formula II, 5-(2-cyclopropylpyrimidin-5-yl)-3-[3-[[ethyl(methyl)sulfamoyl]amino]-2,6-difluoro-benzoyl]-1H-pyrrolo[2,3-b]pyridine]: the “pERK activation in RAS mutant cell lines (in words)” value in experiment [1] is “essentially no pERK activation”. Also, in experiment [1], the “ERK pathway inhibition index (EPII)” value is given as >50,000. Also, the “Stimulation of in vitro and in vivo growth and induction of MAPK pathway response genes including EGFR ligands (in words)” value in experiment [2] is listed as “no such effect”. For the same molecule, the 50% inhibitory concentration (IC50) against CRAF (setting [6]) is 23 nM; against BRAF (setting [6]) it was 14 nM; at BRAF^V600E (setting [7]), 3.8 nM. Further, at BRAF^V600E, the “IC50 against mutated BRAF kinases including BRAFV600E (in words)” value is “single digit”.
Regarding `CCCS(=O)(=O)Nc1ccc(F)c(C(=O)c2c[nH]c3ncc(-c4ccc(Cl)cc4)cc23)c1F` [Vemurafenib, vemurafenib, reference compound], the 50% effective concentration (EC50) in experiment [3] came out at 1010 nM; in experiment [4] it was 588 nM; in experiment [5], 769 nM.
